According to ChEMBL document CHEMBL1147033, “Novel selective androgen receptor modulators: SAR studies on 6-bisalkylamino-2-quinolinones” (Bioorg Med Chem Lett, 2007):

Assays:
Androgen receptor [1] = target: T1, Androgen receptor (Homo sapiens, UniProt P10275)
T1 sequence (P10275 whole entry): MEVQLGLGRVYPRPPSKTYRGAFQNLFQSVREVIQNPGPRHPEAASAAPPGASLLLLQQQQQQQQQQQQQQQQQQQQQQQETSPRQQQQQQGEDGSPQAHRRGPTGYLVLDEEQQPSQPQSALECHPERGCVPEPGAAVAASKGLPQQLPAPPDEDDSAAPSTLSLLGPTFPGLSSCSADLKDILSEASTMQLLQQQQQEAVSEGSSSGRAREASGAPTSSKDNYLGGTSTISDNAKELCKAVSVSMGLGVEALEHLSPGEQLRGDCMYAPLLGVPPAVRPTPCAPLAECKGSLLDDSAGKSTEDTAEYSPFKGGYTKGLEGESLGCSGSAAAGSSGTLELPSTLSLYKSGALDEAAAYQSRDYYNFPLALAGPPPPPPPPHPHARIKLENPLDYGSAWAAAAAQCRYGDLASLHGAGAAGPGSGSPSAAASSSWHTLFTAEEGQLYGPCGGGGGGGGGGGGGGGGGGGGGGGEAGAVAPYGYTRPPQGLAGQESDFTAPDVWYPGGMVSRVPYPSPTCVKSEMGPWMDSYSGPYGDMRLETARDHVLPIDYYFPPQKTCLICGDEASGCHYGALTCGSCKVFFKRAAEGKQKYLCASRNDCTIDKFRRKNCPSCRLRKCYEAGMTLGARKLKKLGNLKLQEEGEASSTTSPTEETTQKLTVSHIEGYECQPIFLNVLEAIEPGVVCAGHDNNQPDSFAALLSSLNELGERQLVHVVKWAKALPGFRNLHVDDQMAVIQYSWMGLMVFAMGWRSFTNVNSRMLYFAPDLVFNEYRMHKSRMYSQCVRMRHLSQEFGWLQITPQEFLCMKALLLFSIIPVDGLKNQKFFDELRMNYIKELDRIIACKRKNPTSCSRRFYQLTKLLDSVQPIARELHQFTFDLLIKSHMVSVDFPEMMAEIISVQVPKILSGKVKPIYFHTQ
Description: Agonist activity at human AR

Androgen receptor [2] = target: T1, Androgen receptor; remark: listed apart in the source
Description: Binding affinity to human AR

Androgen receptor [3] = target: T1, Androgen receptor; remark: listed apart in the source
Description: Antagonist activity at human AR

For O=c1cc(C(F)(F)F)c2cc(N(Cc3ccccc3)CC(F)(F)F)ccc2[nH]1, the EC50 (Androgen receptor [1]) was 27 nM, the Ki (Androgen receptor [2]) was 79 nM and the IC50 (Androgen receptor [3]) was > 10000 nM.
